Results from patent publication US20210214376A1, “HALOGENATED BIOTIN-MODIFIED DIMER AND USE THEREOF” (The University of Tokyo, priority 2018, published 2021).

B1: CEA-V2122 (scFv)
scFv: QVKLEQSGAEVVKPGASVKLSCKASGFNIKDSYMHWLRQGPGQRLEWIGWIDPENGDTEYAPKFQGKATFTTDTSANTAYLGLSSLRPEDTAVYYCNEGTPTGPYYFDYWGQGTLVTVSSGGGGSGGGGSGGGGSENVLTQSPSSMSVSVGDRVNIACSASSSVPYMHWLQQKPGKSPKLLIYLTSNLASGVPSRFSGSGSGTDYSLTISSVQPEDAATYYCQQRSSYPLTFGGGTKLEIKGGGGSGGGGAEAGITGTWSDQLGDTFIVTAGADGALTGTYENAVGGAESRYVLTGRYDSAPATDGSGTALGWTVAWKNNSKNAHSATTWSGQYVGGADAKINTQWLLTSGTTNANAWKSTLVGHDTFTKVKPSAASHHHHHH
notes: Fusion of an anti-CEACAM5 scFv and mutant streptavidin V2122; also called scFv-V2122 (anti-CEACAM5)

Experiments:
[1] = biological target: T1, CEA-V2122 (Streptomyces avidinii, UniProt P22629, Y46S/N47D/S51D/S69N/N73G/Y107S/R108K/E125D/R127K/E140N); assay: Analysis of affinity of CEA-V2122 for Psyche B-iodine and Psyche P-iodine (Biacore T200, Single-Cycle Kinetics); assay type: binding; settings: for bond with CEA-V2122: conclusion from Table 1; for koff: immobilized CEA-V2122, 25° C., Bivalent Analyze mode curve fitting
T1 construct: At the C-terminus a 6xHis tag; The expressed gene carries a pelB signal
T1 sequence (P22629 whole entry Y46S/N47D/S51D/S69N/N73G/Y107S/R108K/E125D/R127K/E140N, looked up): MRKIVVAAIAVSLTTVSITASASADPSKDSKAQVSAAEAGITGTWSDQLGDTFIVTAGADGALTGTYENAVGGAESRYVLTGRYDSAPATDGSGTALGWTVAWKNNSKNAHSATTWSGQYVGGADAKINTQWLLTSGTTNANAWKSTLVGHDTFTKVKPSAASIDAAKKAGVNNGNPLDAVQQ
Excerpt: (§1) The data regarding the affinity of CEA-V2122 for Psyche B-iodine and for Psyche P-iodine were obtained in accordance with the description of Japanese Patent Application 2018-247363. Briefly stating, using an amine coupling kit (GE Healthcare Life Sciences), Sensor Chip CM5 (GE Healthcare Life Science) was set to be a target value that was 5000 RU, and the purified CEA-V2122 was immobilized. With regard to the concentration of the analyte, 5 types of two-fold serial dilutions from 1E-08 M to 6.25E-10 M were used. Biacore T200 (GE Healthcare Life Sciences) was used, the measurement temperature was set to be 25° C., and kinetics data were then obtained according to Single-Cycle Kinetics analysis. Using Biacore T200 Evaluation Software, version 2.0 (GE Healthcare Life Sciences), the obtained data were subjected to curve fitting in a Bivalent Analyze mode, and the evaluation value of each parameter was obtained. The dissociation constant KD is obtained according to Kd/Ka=KD.

[2] = biological target: T2, CEA-V2122 (Streptomyces avidinii, UniProt P22629, E125D/E140N/N47D/N73G/R108K/R127K/S51D/S69N/Y107S/Y46S); assay: as above; assay type: binding; settings: for kon: read-out: Ka
T2 construct: At the C-terminus a 6xHis tag; The expressed gene carries a pelB signal
T2 sequence (P22629 whole entry E125D/E140N/N47D/N73G/R108K/R127K/S51D/S69N/Y107S/Y46S, looked up): as the sequence (P22629 whole entry Y46S/N47D/S51D/S69N/N73G/Y107S/R108K/E125D/R127K/E140N, looked up) above
Excerpt: as §1

[3] = test system: Herceptin-V2122; assay: Binding assay of astatine-labeled Psyche B and Herceptin-Cupid using Ni-NTA magnetic beads; settings: Herceptin-V2122 solution versus PBS control; 5.8 kBq; FIG. 5
Experimental: In order to confirm whether or not astatine-labeled Psyche B has binding ability to Cupid, a binding assay was carried out using Herceptin-Cupid and Ni-NTA magnetic beads (manufactured by Thermo) that bind to a 6×His-tag added to Herceptin-Cupid. Psyche B-At211 used herein was prepared according to Example 1(4), whereas Herceptin-Cupid was prepared according to the method described in Japanese Patent Application 2018-247363, as described above. The specific assay method is as follows.
That is, 4 μL of Herceptin-V2122 solution or PBS used as a control was dispensed into a 1.5-mL tube. Into the tube, 10 μL (corresponding to 5.8 kBq) of Psyche-At211 was added, and the obtained mixture was then incubated at room temperature for 5 minutes. Subsequently, 10 μL of Ni-NTA magnetic beads equilibrated with PBS were added to the reaction mixture, and the thus obtained mixture was then incubated at room temperature for 5 minutes. Thereafter, the beads were precipitated and immobilized by using a magnet, and a supernatant was then recovered. The supernatant was washed with 100 μL of PBS twice, and the radiation dose was then counted using a gamma counter. The results are shown in the graph of FIG. 5.

[4] = test system: HER2-positive SKOV3 cells; assay: Binding of astatine-labeled Psyche B to Herceptin-V2122 pre-bound to SKOV3 cells; assay type: cell-based; settings: 10 kBq/tube; Herceptin-V2122 versus negative control CEA-V2122; FIG. 6
Experimental: (§2) Whether or not astatine-labeled Psyche B has binding ability to Herceptin-V2122, which had previously been bound to HER2-positive SKOV3 cells, was confirmed. As a negative control, CEA-V2122 was used. Psyche B-At211 used herein was prepared according to Example 1(4), whereas Herceptin-V2122 and CEA-V2122 were prepared according to the method described in Japanese Patent Application 2018-247363, as described above. The specific assay method is as follows.
(§3) Four 1.5-mL tubes were prepared, and the cells were then dispersed into each tube to a cell density of 0.875×10^6 cells/tube. Herceptin-V2122 was added to two tubes to result in N=2, whereas CEA-V2122 was added to the remaining two tubes. Subsequently, incubation was carried out on ice for 1 hour, and astatine-labeled Psyche B was then added to the resultant to 10 kBq/tube. Thereafter, the obtained mixture was incubated at room temperature for 30 minutes, while shaking. Finally, the cells were precipitated by centrifugation, and a supernatant was then recovered. The supernatant was washed with PBS twice, and the radiation dose was then counted using a gamma counter. The results are shown in the graph of FIG. 6.

[5] = biological target: T3, HER2 (ERBB2) on HER2-positive SKOV3 ovarian cancer cells (UniProt P04626 23-1255, limits assumed); assay: astatine-211-labeled Psyche B counted by gamma counter on SKOV3 cells pre-incubated with the fusion protein; CEA-V2122 as negative control
T3 construct: whole, on cells
Experimental: as §2
as §3, with “0.875×10⁶” for “0.875×10^6”, “6. The measurement results were Herceptin-V2122-dependent, and it was confirmed that Psyche B-At212 bound to the SKOV3 cells via Herceptin-V2122.” for “6.”

Row | binding result [5] | Molecule | bond with CEA-V2122 [1] | koff [1] [s⁻¹] | Kd [2] [nM] | kon [2] [M⁻¹ s⁻¹] | precipitation with Ni-NTA magnetic beads, radiation dose by gamma counter [3] | binding to SKOV3 cells, radiation dose by gamma counter [4]
1 |  | N=C1N[C@H]2[C@H](CS[C@H]2CCCCC(=O)NCCCCCC(=O)Nc2cc(NC(=O)CCCCCNC(=O)CCCC[C@@H]3SC[C@@H]4NC(=N)N[C@@H]43)cc(C(=O)NCCOCCOCCNC(=O)c3cccc(I)c3)c2)N1 [Psyche B-iodine, (3aS,3a′S,4S,4′S,6aR,6a′R)-4,4′-(((((5-((2-(2-(2-(3-Iodobenzamido)ethoxy)ethoxy)ethyl)carbamoyl)-1,3-phenylene)bis(azanediyl))bis(6-oxohexane-6,1-diyl))bis(azanediyl))bis(5-oxopentane-5,1-diyl))bis(tetrahydro-1H-thieno[3,4-d]imidazol-2(3H)-iminium) 2,2,2-trifluoroacetate] | form a stable bond with CEA-V2122 | 6.4e-07 | 0.022 | 29000 |  | 
2 |  | N=C1N[C@H]2[C@H](CS[C@H]2CCCCC(=O)NCCCCCC(=O)Nc2cc(NC(=O)CCCCCNC(=O)CCCC[C@@H]3SC[C@@H]4NC(=N)N[C@@H]43)cc(C(=O)NCCOCCOCCNC(=O)c3cccc([211At])c3)c2)N1.O=C(O)C(F)(F)F.O=C(O)C(F)(F)F [Psyche B-At211, (3aS,3a′S,4S,4′S,6aR,6a′R)-4,4′-(((((5-((2-(2-(2-(3-(Astato-^211At)benzamido)ethoxy)ethoxy)ethyl)carbamoyl)-1,3-phenylene)bis(azanediyl))bis(6-oxohexane-6,1-diyl))bis(azanediyl))bis(5-oxopentane-5,1-diyl))bis(tetrahydro-1H-thieno[3,4-d]imidazol-2(3H)-iminium) 2,2,2-trifluoroacetate] |  |  |  |  | precipitated in a Herceptin-V2122 presence-dependent manner | bound to the SKOV3 cells via Herceptin-V2122
3 |  | N=C1N[C@H]2[C@H](CS[C@H]2CCCCCOCCCCNC(=O)CN(CCOCCOCCNC(=O)c2cccc(I)c2)CC(=O)NCCCCOCCCCC[C@@H]2SC[C@@H]3NC(=N)N[C@@H]32)N1 [Psyche P-iodine, 2,2′-((2-(2-(2-(3-Iodobenzamido)ethoxy)ethoxy)ethyl)azanediyl)bis(N-(4-((5-((3aS,4S,6aR)-2-iminohexahydro-1H-thieno[3,4-d]imidazol-4-yl)pentyl)oxy)butyl)acetamide) 2,2,2-trifluoroacetate] | form a stable bond with CEA-V2122 | 3.1e-05 | 4.5 | 6800 |  | 
4 | no binding | B1 |  |  |  |  |  | 
